Measurements published in patent EP0070049A1, “Derivative of acetylsalicylic acid having an analgetic, antipyretic, antiphlogistic and bronchosecretolytic activity” (UNIONE CHIMICA MEDICAMENTI- DIFME-S.p.A., priority 1981, dated 1983).

Assays:
[1] = system: température corporelle, augmentée par l'injection intraveineuse de nucléinate de sodium dans le lapin; assay: Antipyretic activity: rise in body temperature induced by intravenous sodium nucleinate; format: in vivo; conditions: for Augmentation temperature corporelle - °C ± d.s. après 1 heure: 1 heure après l'administration; for Augmentation temperature corporelle - °C ± d.s. après 2 heures: 2 heures après l'administration; for Augmentation temperature corporelle - °C ± d.s. après 3 heures: 3 heures après l'administration; for Augmentation temperature corporelle - °C ± d.s. après 4 heures: 4 heures après l'administration
Excerpt: L'activité antipyrétique de l'acétylsalicylate de 2(o-méthoxy-phénoxy)éthanol a été evaluée en comparaison avec celle de l'acide acétylsalicylique suivant la méthode, universellement employée, de la mesure de la variation de la température corporelle, augmentée par 1' injection intraveineuse de nucléinate de sodium dans le lapin. Les résultats de l'élaboration statistique des épreuves sont indiqués dans le suivant Tableau 2, dans lequel l'augmentation de la température corporelle est indiquée en °C ± la déviation standard, et a été mesurée 1, 2, 3 et 4 heures après l'administration; pour les autres valeurs est valable ce qui a été spécifié en relation avec le Tableau 1.

[2] = system: oedème induit par carraghénine injectée dans la patte de rats; assay: Carrageenan-induced rat paw oedema (antiphlogistic activity, Winter et al); format: in vivo; conditions: voie orale; for Volume de l'oedème - ml ± d.s. après 3 heures: 3 heures après le traitement oedémigène; for Volume de l'oedème - ml ± d.s. après 6 heures: 6 heures après le traitement oedémigène
Excerpt: L'activité antiphlogistique de l'acétylsalicylate de 2(o-méthoxy-phénoxy) éthanol a été évaluée en comparaison avec celle de l'acide acétylsalicylique sur la base de la variation de volume de l'oedème induit par carraghénine injectée dans la patte de rats, suivant la technique décrite par Winter et al (Proc. Soc. Exp. Biol. Med., volume III, page 544, 1962). Les résultats de l'élaboration des épreuves sont indiqués dans le Tableau 1, dans lequel le volume de l'oedème est indiqué en millilitres z la déviation standard, et il a été mesuré 3, 4,5 et 6 heures après le traitement oedémigène; la dose de substance est indiquée en milligrammes de substance administrée par voie orale pour chaque kilogramme de poids corporel des rats; les valeurs marquées par * correspondent à une probabilité d'erreur p < 0,05, les valeurs marquées correspondent à une probabilité d'erreur p < 0,01, calculées sur les valeurs des contrôles, et les valeurs indiquées entre parenthèses indiquent l'inhibition en pour-cent calculée par rapport aux contrôles.

[3] = system: rats; conditions: rat, in vivo, 500 mg/kg
Excerpt: La toxicité subaiguë de l'acétylsalicylate de 2(o-méthoxy-phénoxy)éthanol a été évaluée en comparaison avec celle de l'acide acétylsalicylique en administrant à des rats, par voie orale, des doses journalières de substance pour 10 jours, et en relevant le nombre des animaux morts, la diminution moyenne de poids des animaux traités et l'incidence des lésions gastriques relevées, distinguées en simple hyperémie, hyperémie accompagnée par hémorragie et hémorragie accompagnée par ulcérations. Les résultats des épreuves sont indiqués dans le Tableau 5, dans lequel la dose de substance administrée est exprimée en mg de substance par kg de poids corporel et par jour, et la diminution moyenne de poids corporel à la fin du traitement est exprimée en grammes.

[4] = system: convulsions abdominales (writhings) induites dans le souris par une injection intrapéritonéale d'acide acétique; assay: Acetic acid writhing test (analgesic activity, Koster and Anderson); format: in vivo; conditions: for Frequence writhings: souris, 60 minutes après l'administration, ± déviation standard
Excerpt: L'activité analgésique de l'acétylsalicylate de 2(o-méthoxy-phénoxy)éthanol a été évaluée en comparaison avec celle de l'acide acétylsalicylique sur la base de la fréquence des convulsions abdominales (writhings) induites dans le souris par une injection intrapéritonéale d'acide acétique, suivant la technique décrite par Koster et Anderson (Fed. Proc., volume 18, page 412, 1959). Les résultats de l'élaboration statistique des épreuves sont indiqués dans le suivant Tableau 3, dans lequel la fréquence des convulsions est indiquée comme nombre de convulsions par minute ± la déviation standard, et a été mesurée 60 minutes après l'administration; pour les autres valeurs est valable ce qui a été spécifié en relation avec le Tableau 1.

[5] = system: arbre bronchial de rats Wistar; assay: Bronchosecretolytic activity: pulmonary excretion of fluorescein (Mawatari); format: in vivo; conditions: rats Wistar, 101,8 mg/Kg
Excerpt: L'activité bronchosécrétolytique de l'acétylsalicylate de 2(o-méthoxy-phénoxy)éthanol a été évaluée en comparaison avec celle du gaïacoléthanol, sur la base de la mesure des variations de la quantité d'indicateur (fluorescéine) trouvée dans l'arbre bronchial de rats Wistar, recueillie au moyen d'un système de lavage standardisé, après injection parentérale de l'indicateur, et mesurée au moyen d'un spectrofluorométre, suivant la méthode décrite par H.Mawatari ("Expérimental studies on the expectorant action of several drugs", Kagoshima Daigakeu Igakeu Zasshi, volume 27, page 561, 1976). Les résultats de l'élaboration statistique des épreuves sont recueillis dans le suivant tableau 4,dans lequel l' excrétion pulmonaire de fluorescéine est exprimée en microgrammes ± la déviation standard, soit dans la quantité totale trouvée, soit dans la quantité pour-cent rapportée à 100 g de poids corporel des rats. Entre parenthèses sont indiquées les valeurs de l'augmentation pour-cent par rapport aux contrôles. Pour les autres valeurs est valable ce qui été précisé en relation au Tableau 1.

CC(=O)Oc1ccccc1C(=O)O [Acide acétyl-salicylique, acide acétylsalicylique, reference compound]
inhibition en pour-cent calculée par rapport aux contrôles, après 1 heure ([1]; 100 mg/Kg): 40 pour-cent
Augmentation temperature corporelle - °C ± d.s. après 1 heure ([1]; 100 mg/Kg): 0,75 ± 0,16 °C
inhibition en pour-cent calculée par rapport aux contrôles, après 2 heures ([1]; 100 mg/Kg): 46 pour-cent
Augmentation temperature corporelle - °C ± d.s. après 2 heures ([1]; 100 mg/Kg): 0,78 ± 0,17 °C
inhibition en pour-cent calculée par rapport aux contrôles, après 3 heures ([1]; 100 mg/Kg): 43 pour-cent
Augmentation temperature corporelle - °C ± d.s. après 3 heures ([1]; 100 mg/Kg): 0,94 ± 0,12 °C
inhibition en pour-cent calculée par rapport aux contrôles, après 4 heures ([1]; 100 mg/Kg): 26 pour-cent
Augmentation temperature corporelle - °C ± d.s. après 4 heures ([1]; 100 mg/Kg): 0,55 ± 0,1 °C
inhibition en pour-cent calculée par rapport aux contrôles, après 1 heure ([1]; 200 mg/Kg): 50 pour-cent
Augmentation temperature corporelle - °C ± d.s. après 1 heure ([1]; 200 mg/Kg): 0,62 ± 0,13 °C
inhibition en pour-cent calculée par rapport aux contrôles, après 2 heures ([1]; 200 mg/Kg): 51 pour-cent
Augmentation temperature corporelle - °C ± d.s. après 2 heures ([1]; 200 mg/Kg): 0,71 ± 0,18 °C
inhibition en pour-cent calculée par rapport aux contrôles, après 3 heures ([1]; 200 mg/Kg): 43 pour-cent
Augmentation temperature corporelle - °C ± d.s. après 3 heures ([1]; 200 mg/Kg): 0,93 ± 0,16 °C
inhibition en pour-cent calculée par rapport aux contrôles, après 4 heures ([1]; 200 mg/Kg): 31 pour-cent
Augmentation temperature corporelle - °C ± d.s. après 4 heures ([1]; 200 mg/Kg): 0,52 ± 0,07 °C
inhibition en pour-cent calculée par rapport aux contrôles, après 3 heures ([2]; 100 mg/Kg): 44,0 pour-cent
Volume de l'oedème - ml ± d.s. après 3 heures ([2]; 100 mg/Kg): 0,380 ± 0,21 ml
inhibition en pour-cent calculée par rapport aux contrôles, après 4,5 heures ([2]; 100 mg/Kg, 4,5 heures): 35,0 pour-cent
Volume de l'oedème - ml ± d.s. après 4,5 heures ([2]; 100 mg/Kg, 4,5 heures après le traitement oedémigène): 0,395 ± 0,14 ml
inhibition en pour-cent calculée par rapport aux contrôles, après 6 heures ([2]; 100 mg/Kg): 41,0 pour-cent
Volume de l'oedème - ml ± d.s. après 6 heures ([2]; 100 mg/Kg): 0,285 ± 0,18 ml
inhibition en pour-cent calculée par rapport aux contrôles, après 3 heures ([2]; 200 mg/Kg): 56,5 pour-cent
Volume de l'oedème - ml ± d.s. après 3 heures ([2]; 200 mg/Kg): 0,297 ± 0,17 ml
inhibition en pour-cent calculée par rapport aux contrôles, après 4,5 heures ([2]; 200 mg/Kg, 4,5 heures): 39,0 pour-cent
Volume de l'oedème - ml ± d.s. après 4,5 heures ([2]; 200 mg/Kg, 4,5 heures après le traitement oedémigène): 0,370 ± 0,09 ml
inhibition en pour-cent calculée par rapport aux contrôles, après 6 heures ([2]; 200 mg/Kg): 43,0 pour-cent
Volume de l'oedème - ml ± d.s. après 6 heures ([2]; 200 mg/Kg): 0,275 ± 0,18 ml
Lésions gastriques Hyperémie [3]: 4
Lésions gastriques Hyperémie + hémorragie [3]: 3
Lésions gastriques Hémorragie + ulcérations [3]: 2
Nombre animaux morts [3]: 6
Δ poids moyenne [3]: -30 grammes
inhibition at 100 mg/kg ([4]; 1 h): 30%
inhibition at 200 mg/kg ([4]; 1 h): 44%
Frequence writhings ([4]; 100 mg/Kg): *20,5 ± 6,7 convulsions par minute
Frequence writhings ([4]; 200 mg/Kg): **16,4 ± 5,8 convulsions par minute

COc1ccccc1OCCO [Gaïacol-éthanol, gaïacoléthanol, reference compound]
augmentation pour-cent par rapport aux contrôles (excrétion pulmonaire de fluorescéine, quantité totale) [5]: +72,2 pour-cent
Excrétion pulmonaire de fluorescéine Quantité pour-cent µg/100 g ([5]; rapportée à 100 g de poids corporel, ± déviation standard): 0,202 ± 0,034 µg/100 g
Excrétion pulmonaire de fluorescéine Quantité totale µg ([5]; ± déviation standard): 0,434 ± 0,064 µg
